According to US20170088532A1, “INHIBITORS OF LPXC” (The Regents of the University of California, priority 2013, published 2017):
Read-outs that look alike come from different tables or passages of the source.

Biological target: T1, E. Coli LpxC (Escherichia coli, UniProt P0A725)
T1 sequence (P0A725 1-305): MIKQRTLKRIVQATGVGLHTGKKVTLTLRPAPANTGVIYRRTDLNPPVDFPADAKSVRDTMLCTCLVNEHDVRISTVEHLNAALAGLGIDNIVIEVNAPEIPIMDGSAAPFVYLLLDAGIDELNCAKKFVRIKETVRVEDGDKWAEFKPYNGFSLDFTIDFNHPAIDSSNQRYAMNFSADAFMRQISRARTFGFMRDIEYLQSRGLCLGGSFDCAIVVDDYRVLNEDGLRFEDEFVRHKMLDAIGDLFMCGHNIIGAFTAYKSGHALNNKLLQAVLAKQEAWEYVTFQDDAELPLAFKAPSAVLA
Experiment: Inhibition of LpxC from E. coli
Assay type: biochemical
Conditions: for inhibition at 50 µM: compound at 50 μM
Source text: Methods for assessing inhibition of LpxC are known in the art.

[1] = Table 1, read-out: % Inhibition E. Coli LpxC at 50 μM
[2] = Table 2, values in parentheses, read-out: (% Inhibition of E. Coli LpxC at 50 μM)

SMILES	inhibition at 50 µM [1] [%]	inhibition at 50 µM [2] [%]	IC50 (E. Coli LpxC, Table 2, values without parentheses) [µM]
Cc1cc(=O)c(O)c(CNc2ccc(-c3ccccc3)cc2)o1 [Compound 014]	23	23	
COC(=O)c1cc(=O)c(O)c(CNc2ccc(-c3ccc(OC)cc3)cc2)o1 [Compound 035]	29	29	
O=c1ccoc(CNc2ccc(-c3ccccc3)cc2)c1O [Compound 013]	67	67	
COc1ccc(-c2ccc(NCc3oc(CO)cc(=O)c3O)cc2)cc1 [Compound 018, 3-hydroxy-6-(hydroxymethyl)-2-(((4′-methoxy-[1,1′-biphenyl]-4-yl)amino)methyl)-4H-pyran-4-one]	81		12.7
O=c1cc(CO)oc(CNc2ccc(-c3ccccc3)cc2)c1O [Compound 010]	39	39	
COc1ccc(-c2ccc(NCc3occc(=O)c3O)cc2)cc1 [Compound 027]	13	13	
